pIC50: −log10 of the molar value.
Key:
[1] = target: C-Raf (Homo sapiens, UniProt P04049); assay: Kinase activity assay, C-Raf
[2] = target: MAP4K4 (Homo sapiens, UniProt O95819); assay: Kinase activity assay, MAP4K4
[3] = target: B-Raf V600E (Homo sapiens, UniProt P15056, V600E); assay: Kinase activity assay, B-Raf V600E; assay type: biochemical; settings: read-out: activity toward kinase B-Raf V600E, IC50
[4] = target: Kdr (Homo sapiens, UniProt P35968); assay: Kinase activity assay, Kdr
[5] = target: T1, A-Raf (Homo sapiens, UniProt P10398); assay: Kinase activity assay, A-Raf
T1 sequence (P10398 1-606): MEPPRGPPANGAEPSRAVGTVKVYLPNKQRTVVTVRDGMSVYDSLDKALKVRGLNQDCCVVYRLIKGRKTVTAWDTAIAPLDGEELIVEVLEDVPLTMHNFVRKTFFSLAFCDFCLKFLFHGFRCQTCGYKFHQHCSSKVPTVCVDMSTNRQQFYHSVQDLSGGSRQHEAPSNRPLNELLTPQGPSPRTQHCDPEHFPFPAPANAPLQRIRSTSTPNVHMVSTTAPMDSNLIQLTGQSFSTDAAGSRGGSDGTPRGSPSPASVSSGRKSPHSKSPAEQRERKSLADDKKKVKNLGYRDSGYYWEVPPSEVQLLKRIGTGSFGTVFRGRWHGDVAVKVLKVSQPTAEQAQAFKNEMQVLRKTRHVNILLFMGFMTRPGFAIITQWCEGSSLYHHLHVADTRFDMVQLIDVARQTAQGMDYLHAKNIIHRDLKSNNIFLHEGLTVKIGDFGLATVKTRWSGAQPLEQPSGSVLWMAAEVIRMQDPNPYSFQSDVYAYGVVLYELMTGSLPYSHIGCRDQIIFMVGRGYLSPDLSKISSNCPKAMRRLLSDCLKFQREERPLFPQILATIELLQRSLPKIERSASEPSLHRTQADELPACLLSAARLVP

[6] = target: Src (Homo sapiens, UniProt P12931); assay: Kinase activity assay, Src
Src, sequence (P12931 whole entry): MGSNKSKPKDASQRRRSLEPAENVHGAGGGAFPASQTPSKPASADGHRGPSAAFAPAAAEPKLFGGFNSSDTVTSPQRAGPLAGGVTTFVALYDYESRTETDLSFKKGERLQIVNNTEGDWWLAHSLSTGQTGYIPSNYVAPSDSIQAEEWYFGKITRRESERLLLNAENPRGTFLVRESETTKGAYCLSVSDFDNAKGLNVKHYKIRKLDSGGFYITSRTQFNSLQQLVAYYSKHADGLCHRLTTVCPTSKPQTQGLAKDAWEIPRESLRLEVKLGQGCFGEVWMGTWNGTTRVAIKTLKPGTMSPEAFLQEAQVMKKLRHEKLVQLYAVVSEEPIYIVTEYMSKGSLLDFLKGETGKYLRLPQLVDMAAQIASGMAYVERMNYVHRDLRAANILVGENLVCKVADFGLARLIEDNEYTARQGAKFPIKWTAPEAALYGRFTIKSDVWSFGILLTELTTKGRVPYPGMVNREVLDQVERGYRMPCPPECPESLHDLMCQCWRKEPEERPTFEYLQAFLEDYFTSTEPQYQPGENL

[7] = target: B-Raf (Homo sapiens, UniProt P15056); assay: Kinase activity assay, B-Raf; assay type: biochemical; settings: read-out: activity toward kinase B-Raf, IC50
B-Raf, sequence (P15056 whole entry): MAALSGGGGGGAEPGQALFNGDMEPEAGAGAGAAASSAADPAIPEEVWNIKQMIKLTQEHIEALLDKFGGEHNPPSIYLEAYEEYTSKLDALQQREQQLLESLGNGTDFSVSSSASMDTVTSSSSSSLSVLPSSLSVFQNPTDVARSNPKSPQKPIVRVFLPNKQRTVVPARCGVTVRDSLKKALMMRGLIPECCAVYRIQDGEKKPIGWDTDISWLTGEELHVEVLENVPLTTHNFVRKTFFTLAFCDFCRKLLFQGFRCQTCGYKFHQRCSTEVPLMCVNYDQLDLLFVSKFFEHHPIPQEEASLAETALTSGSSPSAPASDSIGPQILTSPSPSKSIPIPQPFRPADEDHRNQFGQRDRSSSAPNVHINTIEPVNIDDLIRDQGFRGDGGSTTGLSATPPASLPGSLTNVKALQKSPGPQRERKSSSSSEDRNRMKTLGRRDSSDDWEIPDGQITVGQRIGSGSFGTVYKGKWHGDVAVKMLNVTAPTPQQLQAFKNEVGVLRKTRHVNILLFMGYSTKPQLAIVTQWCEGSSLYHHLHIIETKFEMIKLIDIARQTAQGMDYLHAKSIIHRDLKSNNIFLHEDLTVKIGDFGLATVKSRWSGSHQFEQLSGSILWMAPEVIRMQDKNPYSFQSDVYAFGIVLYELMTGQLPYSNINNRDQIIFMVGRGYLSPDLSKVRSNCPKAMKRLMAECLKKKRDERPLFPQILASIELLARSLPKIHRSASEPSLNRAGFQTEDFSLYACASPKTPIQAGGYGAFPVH

[8] = target: Kit (Homo sapiens, UniProt P10721); assay: Kinase activity assay, Kit
Kit, sequence (P10721 26-976): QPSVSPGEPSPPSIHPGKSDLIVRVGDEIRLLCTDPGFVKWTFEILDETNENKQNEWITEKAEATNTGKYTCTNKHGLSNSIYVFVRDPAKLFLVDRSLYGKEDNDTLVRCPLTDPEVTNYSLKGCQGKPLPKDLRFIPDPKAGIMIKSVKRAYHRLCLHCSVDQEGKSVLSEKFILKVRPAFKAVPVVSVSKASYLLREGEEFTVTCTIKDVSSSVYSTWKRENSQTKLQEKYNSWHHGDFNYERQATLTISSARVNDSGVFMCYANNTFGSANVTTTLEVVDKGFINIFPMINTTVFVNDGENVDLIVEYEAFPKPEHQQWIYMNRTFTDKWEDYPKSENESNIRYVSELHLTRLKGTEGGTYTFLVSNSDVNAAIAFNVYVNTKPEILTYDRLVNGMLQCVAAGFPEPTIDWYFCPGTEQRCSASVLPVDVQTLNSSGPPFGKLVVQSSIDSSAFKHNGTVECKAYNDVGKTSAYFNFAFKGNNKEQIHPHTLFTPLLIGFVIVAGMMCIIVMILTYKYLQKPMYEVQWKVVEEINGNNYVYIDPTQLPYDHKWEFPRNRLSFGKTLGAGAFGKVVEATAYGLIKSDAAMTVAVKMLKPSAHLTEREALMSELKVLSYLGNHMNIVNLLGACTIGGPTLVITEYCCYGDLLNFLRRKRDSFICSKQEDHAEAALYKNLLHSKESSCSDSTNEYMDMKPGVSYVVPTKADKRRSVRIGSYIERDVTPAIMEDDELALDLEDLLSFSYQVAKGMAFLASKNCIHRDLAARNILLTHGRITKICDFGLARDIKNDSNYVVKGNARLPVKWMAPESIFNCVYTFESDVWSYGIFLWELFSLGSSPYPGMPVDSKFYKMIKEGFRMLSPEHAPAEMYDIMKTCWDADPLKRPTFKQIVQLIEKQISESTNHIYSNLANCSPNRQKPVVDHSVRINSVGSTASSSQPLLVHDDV

[9] = target: Fms (Homo sapiens, UniProt P07333); assay: Kinase activity assay, Fms

MAP4K4, sequence (O95819 whole entry): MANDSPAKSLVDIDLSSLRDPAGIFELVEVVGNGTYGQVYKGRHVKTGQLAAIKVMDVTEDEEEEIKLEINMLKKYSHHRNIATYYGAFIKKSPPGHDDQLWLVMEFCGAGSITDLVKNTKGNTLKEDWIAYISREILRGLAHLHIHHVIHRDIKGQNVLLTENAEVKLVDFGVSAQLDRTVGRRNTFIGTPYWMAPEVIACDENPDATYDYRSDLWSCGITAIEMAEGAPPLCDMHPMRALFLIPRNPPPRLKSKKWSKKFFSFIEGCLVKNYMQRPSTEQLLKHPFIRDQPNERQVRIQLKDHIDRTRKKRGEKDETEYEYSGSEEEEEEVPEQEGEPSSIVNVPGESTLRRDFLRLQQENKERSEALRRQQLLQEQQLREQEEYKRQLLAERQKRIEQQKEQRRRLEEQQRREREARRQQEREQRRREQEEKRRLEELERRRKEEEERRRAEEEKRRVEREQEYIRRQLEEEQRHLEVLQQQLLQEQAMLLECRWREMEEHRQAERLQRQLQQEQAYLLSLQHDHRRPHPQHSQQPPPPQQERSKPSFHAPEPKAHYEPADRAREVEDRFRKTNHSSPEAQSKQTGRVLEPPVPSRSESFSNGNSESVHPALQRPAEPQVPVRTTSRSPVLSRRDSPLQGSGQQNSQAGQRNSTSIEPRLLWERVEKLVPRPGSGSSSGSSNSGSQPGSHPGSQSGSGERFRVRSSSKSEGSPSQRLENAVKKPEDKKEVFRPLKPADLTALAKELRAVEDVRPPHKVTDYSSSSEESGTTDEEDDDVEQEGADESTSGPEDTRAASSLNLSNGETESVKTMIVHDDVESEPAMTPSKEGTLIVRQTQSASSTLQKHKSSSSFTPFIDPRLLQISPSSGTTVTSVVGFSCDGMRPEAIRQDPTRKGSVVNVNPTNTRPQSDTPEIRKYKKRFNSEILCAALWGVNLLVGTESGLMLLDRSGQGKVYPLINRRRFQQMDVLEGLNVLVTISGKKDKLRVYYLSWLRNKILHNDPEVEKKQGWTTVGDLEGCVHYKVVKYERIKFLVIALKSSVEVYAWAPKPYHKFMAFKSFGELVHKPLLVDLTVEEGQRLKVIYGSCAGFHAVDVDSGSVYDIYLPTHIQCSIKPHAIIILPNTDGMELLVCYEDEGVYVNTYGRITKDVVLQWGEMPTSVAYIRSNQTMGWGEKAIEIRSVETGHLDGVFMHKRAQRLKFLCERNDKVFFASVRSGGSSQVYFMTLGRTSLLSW
B-Raf V600E, sequence (P15056 whole entry V600E): as the sequence (P15056 whole entry) above, with V600E counted along it
C-Raf, sequence (P04049 whole entry): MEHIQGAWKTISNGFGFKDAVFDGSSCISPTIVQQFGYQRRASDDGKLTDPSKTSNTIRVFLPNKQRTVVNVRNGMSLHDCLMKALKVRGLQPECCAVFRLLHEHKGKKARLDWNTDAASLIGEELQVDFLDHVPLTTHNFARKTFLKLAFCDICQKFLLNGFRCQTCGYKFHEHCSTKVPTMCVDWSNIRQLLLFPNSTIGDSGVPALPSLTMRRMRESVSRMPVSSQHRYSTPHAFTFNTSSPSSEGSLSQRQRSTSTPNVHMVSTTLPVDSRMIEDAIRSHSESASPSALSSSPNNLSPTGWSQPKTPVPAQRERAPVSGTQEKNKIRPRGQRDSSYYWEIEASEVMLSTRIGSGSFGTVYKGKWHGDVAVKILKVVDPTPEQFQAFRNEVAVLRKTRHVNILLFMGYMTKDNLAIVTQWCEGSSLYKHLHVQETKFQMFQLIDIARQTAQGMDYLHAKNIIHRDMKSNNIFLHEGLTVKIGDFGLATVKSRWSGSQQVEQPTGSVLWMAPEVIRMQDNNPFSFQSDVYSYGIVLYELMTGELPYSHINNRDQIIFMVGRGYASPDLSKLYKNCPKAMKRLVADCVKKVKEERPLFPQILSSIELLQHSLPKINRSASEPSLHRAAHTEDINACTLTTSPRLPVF

Compound	pIC50 [1]	pIC50 [2]	pIC50 [3]	pIC50 [4]	pIC50 [5]	pIC50 [6]	pIC50 [7]	pIC50 [8]	pIC50 [9]
N#Cc1cnc2[nH]cc(C(=O)c3c(F)ccc(NS(=O)(=O)c4ccccn4)c3F)c2c1 [P-2063, Pyridine-2-sulfonic acid [3-(5-cyano-1H-pyrrolo[2,3-b]pyridine-3-carbonyl)-2,4-difluoro-phenyl]-amide]	≥ 5.00	≥ 5.00	≥ 5.00	–	≥ 5.00	≥ 5.00	≥ 5.00	–	–
Cc1cnc2[nH]cc(C(=O)c3c(F)ccc(NS(=O)(=O)c4cccnc4)c3F)c2c1 [P-2069, Pyridine-3-sulfonic acid [2,4-difluoro-3-(5-methyl-1H-pyrrolo[2,3-b]pyridine-3-carbonyl)-phenyl]-amide]	≥ 5.00	≥ 5.00	≥ 5.00	–	≥ 5.00	≥ 5.00	≥ 5.00	–	–
O=C(c1c(F)ccc(NS(=O)(=O)c2ccccn2)c1F)c1c[nH]c2nccc(Cl)c12 [P-2075, Pyridine-2-sulfonic acid [3-(4-chloro-1H-pyrrolo[2,3-b]pyridine-3-carbonyl)-2,4-difluoro-phenyl]-amide]	≥ 5.00	≥ 5.00	≥ 5.00	≥ 5.00	≥ 5.00	≥ 5.00	≥ 5.00	–	–
COc1ccnc2[nH]cc(C(=O)c3c(F)ccc(NS(=O)(=O)c4ccccn4)c3F)c12 [P-2076, Pyridine-2-sulfonic acid [2,4-difluoro-3-(4-methoxy-1H-pyrrolo[2,3-b]pyridine-3-carbonyl)-phenyl]-amide]	≥ 5.00	≥ 5.00	≥ 5.00	–	≥ 5.00	≥ 5.00	≥ 5.00	–	–
CCCS(=O)(=O)Nc1ccc(F)c(C(=O)c2c[nH]c3ncc(C(F)(F)F)cc23)c1F [P-2182, Propane-1-sulfonic acid [2,4-difluoro-3-(5-trifluoromethyl-1H-pyrrolo[2,3-b]pyridine-3-carbonyl)-phenyl]-amide]	≥ 5.00	≥ 5.00	≥ 5.00	≥ 5.00	≥ 5.00	–	≥ 5.00	≥ 5.00	–
CCCS(=O)(=O)Nc1ccc(F)c(C(=O)c2c[nH]c3ncc(CN4CCOCC4)cc23)c1F [P-2244, Propane-1-sulfonic acid [2,4-difluoro-3-(5-morpholin-4-ylmethyl-1H-pyrrolo[2,3-b]pyridine-3-carbonyl)-phenyl]-amide]	≥ 5.00	≥ 5.00	≥ 5.00	–	≥ 5.00	–	≥ 5.00	–	–
CCS(=O)(=O)Nc1ccc(F)c(C(=O)c2c[nH]c3nccc(Cl)c23)c1F [P-2276, Ethanesulfonic acid [3-(4-chloro-1H-pyrrolo[2,3-b]pyridine-3-carbonyl)-2,4-difluoro-phenyl]-amide]	≥ 5.00	≥ 5.00	≥ 5.00	≥ 5.00	≥ 5.00	≥ 5.00	≥ 5.00	–	–
CCS(=O)(=O)Nc1ccc(F)c(C(=O)c2c[nH]c3ncc(C)cc23)c1F [P-2277, Ethanesulfonic acid [2,4-difluoro-3-(5-methyl-1H-pyrrolo[2,3-b]pyridine-3-carbonyl)-phenyl]-amide]	≥ 5.00	≥ 5.00	≥ 5.00	≥ 5.00	≥ 5.00	≥ 5.00	≥ 5.00	–	–
COc1cnc2[nH]cc(C(=O)c3c(F)ccc(NS(C)(=O)=O)c3F)c2c1 [P-2288, N-[2,4-Difluoro-3-(5-methoxy-1H-pyrrolo[2,3-b]pyridine-3-carbonyl)-phenyl]-methanesulfonamide]	≥ 5.00	≥ 5.00	≥ 5.00	≥ 5.00	≥ 5.00	–	–	≥ 5.00	–
Cc1cnc2[nH]cc(C(=O)c3c(F)ccc(NS(C)(=O)=O)c3F)c2c1 [P-2289, N-[2,4-Difluoro-3-(5-methyl-1H-pyrrolo[2,3-b]pyridine-3-carbonyl)-phenyl]-methanesulfonamide]	≥ 5.00	≥ 5.00	≥ 5.00	≥ 5.00	≥ 5.00	–	–	≥ 5.00	–
Cc1cnc2[nH]cc(C(=O)c3c(F)ccc(NS(=O)(=O)CC(F)(F)F)c3F)c2c1 [P-2337, 2,2,2-Trifluoro-ethanesulfonic acid [2,4-difluoro-3-(5-methyl-1H-pyrrolo[2,3-b]pyridine-3-carbonyl)-phenyl]-amide]	≥ 5.00	≥ 5.00	≥ 5.00	≥ 5.00	≥ 5.00	≥ 5.00	–	–	–
O=C(c1c(F)ccc(NS(=O)(=O)C(F)(F)F)c1F)c1c[nH]c2ncc(-c3ccc(Cl)cc3)cc12 [P-2343, N-{3-[5-(4-Chloro-phenyl)-1H-pyrrolo[2,3-b]pyridine-3-carbonyl]-2,4-difluoro-phenyl}-C,C,C-trifluoro-methanesulfonamide]	≥ 5.00	–	≥ 5.00	≥ 5.00	≥ 5.00	≥ 5.00	≥ 5.00	≥ 5.00	≥ 5.00
Cc1cnc2[nH]cc(C(=O)c3c(F)ccc(NS(=O)(=O)C4CCC4)c3F)c2c1 [P-2362, Cyclobutanesulfonic acid [2,4-difluoro-3-(5-methyl-1H-pyrrolo[2,3-b]pyridine-3-carbonyl)-phenyl]-amide]	≥ 5.00	≥ 5.00	≥ 5.00	≥ 5.00	≥ 5.00	–	–	–	–
N#Cc1cnc2[nH]cc(C(=O)c3c(F)ccc(NS(=O)(=O)C4CCCCC4)c3F)c2c1 [P-2366, Cyclohexanesulfonic acid [3-(5-cyano-1H-pyrrolo[2,3-b]pyridine-3-carbonyl)-2,4-difluoro-phenyl]-amide]	≥ 5.00	≥ 5.00	≥ 5.00	–	≥ 5.00	–	≥ 5.00	≥ 5.00	–

Second part, the compound after the results:

pIC50 [1]	pIC50 [2]	pIC50 [3]	pIC50 [4]	pIC50 [5]	pIC50 [6]	pIC50 [7]	pIC50 [8]	pIC50 [9]	Compound
≥ 5.00	≥ 5.00	≥ 5.00	≥ 5.00	≥ 5.00	≥ 5.00	–	–	–	O=C(c1c(F)ccc(NS(=O)(=O)c2ncn[nH]2)c1F)c1c[nH]c2ncc(Cl)cc12 [P-2062, 2H-[1,2,4]Triazole-3-sulfonic acid [3-(5-chloro-1H-pyrrolo[2,3-b]pyridine-3-carbonyl)-2,4-difluoro-phenyl]-amide]
≥ 5.00	≥ 5.00	≥ 5.00	≥ 5.00	≥ 5.00	–	–	–	–	N#Cc1cnc2[nH]cc(C(=O)c3c(F)ccc(NS(=O)(=O)c4ncn[nH]4)c3F)c2c1 [P-2064, 2H-[1,2,4]Triazole-3-sulfonic acid [3-(5-cyano-1H-pyrrolo[2,3-b]pyridine-3-carbonyl)-2,4-difluoro-phenyl]-amide]
≥ 5.00	≥ 5.00	≥ 5.00	≥ 5.00	≥ 5.00	≥ 5.00	–	–	–	Cc1cnc2[nH]cc(C(=O)c3c(F)ccc(NS(=O)(=O)c4ncn[nH]4)c3F)c2c1 [P-2065, 2H-[1,2,4]Triazole-3-sulfonic acid [2,4-difluoro-3-(5-methyl-1H-pyrrolo[2,3-b]pyridine-3-carbonyl)-phenyl]-amide]
≥ 5.00	≥ 5.00	≥ 5.00	≥ 5.00	≥ 5.00	–	≥ 5.00	–	–	O=C(c1c(F)ccc(NS(=O)(=O)c2ncn[nH]2)c1F)c1c[nH]c2nccc(Cl)c12 [P-2066, 2H-[1,2,4]Triazole-3-sulfonic acid [3-(4-chloro-1H-pyrrolo[2,3-b]pyridine-3-carbonyl)-2,4-difluoro-phenyl]-amide]
≥ 5.00	≥ 5.00	≥ 5.00	≥ 5.00	≥ 5.00	–	≥ 5.00	≥ 5.00	–	CCS(=O)(=O)Nc1ccc(F)c(C(=O)c2c[nH]c3ncc(Cl)cc23)c1F [P-2274, Ethanesulfonic acid [3-(5-chloro-1H-pyrrolo[2,3-b]pyridine-3-carbonyl)-2,4-difluoro-phenyl]-amide]
≥ 5.00	≥ 5.00	≥ 5.00	≥ 5.00	≥ 5.00	–	–	≥ 5.00	–	CS(=O)(=O)Nc1ccc(F)c(C(=O)c2c[nH]c3ncc(Cl)cc23)c1F [P-2291, N-[3-(5-Chloro-1H-pyrrolo[2,3-b]pyridine-3-carbonyl)-2,4-difluoro-phenyl]-methanesulfonamide]

Reference: patent US20120122860A1, “SOLID FORMS OF SULFONAMIDES AND AMINO ACIDS” (Plexxikon, Inc., priority 2009, published 2012)
